According to US11660293B2, “Substituted 2-azabicyclo[3.1.1]heptane and 2-azabicyclo[3.2.1]octane derivatives as orexin receptor antagonists” (Chronos Therapeutics Limited, priority 2017, dated 2023):

Assays:
[1] = target: T1, human Orexin type 2 receptors (Homo sapiens (Human), UniProt O43614); test: Intracellular calcium measurement (FLIPR), antagonism of Orexin-A at EC80 in CHO-hOX2 cells
[2] = target: T2, human Orexin type 1 receptors (Homo sapiens (Human), UniProt O43613); test: Intracellular calcium measurement (FLIPR), antagonism of Orexin-A at EC80 in CHO-hOX1 cells
T2 sequence (O43613 whole entry): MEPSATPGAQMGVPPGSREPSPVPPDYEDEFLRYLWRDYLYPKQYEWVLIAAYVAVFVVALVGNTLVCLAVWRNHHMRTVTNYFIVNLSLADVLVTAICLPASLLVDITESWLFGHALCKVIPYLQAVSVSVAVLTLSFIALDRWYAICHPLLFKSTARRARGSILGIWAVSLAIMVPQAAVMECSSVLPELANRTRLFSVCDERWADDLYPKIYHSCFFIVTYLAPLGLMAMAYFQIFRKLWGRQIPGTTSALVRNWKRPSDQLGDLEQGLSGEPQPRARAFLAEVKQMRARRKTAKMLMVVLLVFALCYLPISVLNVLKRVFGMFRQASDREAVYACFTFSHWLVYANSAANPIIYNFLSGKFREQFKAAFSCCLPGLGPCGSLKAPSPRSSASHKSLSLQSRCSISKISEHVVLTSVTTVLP

[3] = target: T1, human Orexin type 2 receptors; test: Scintillation Proximity Assay (SPA) binding assay, [3H]EMPA displacement, HEK-hOX2 membranes
[4] = target: T2, human Orexin type 1 receptors; test: Scintillation Proximity Assay (SPA) binding assay, [3H]SB-674042 displacement, CHO-hOX1 membranes

T1 sequence (O43614 whole entry): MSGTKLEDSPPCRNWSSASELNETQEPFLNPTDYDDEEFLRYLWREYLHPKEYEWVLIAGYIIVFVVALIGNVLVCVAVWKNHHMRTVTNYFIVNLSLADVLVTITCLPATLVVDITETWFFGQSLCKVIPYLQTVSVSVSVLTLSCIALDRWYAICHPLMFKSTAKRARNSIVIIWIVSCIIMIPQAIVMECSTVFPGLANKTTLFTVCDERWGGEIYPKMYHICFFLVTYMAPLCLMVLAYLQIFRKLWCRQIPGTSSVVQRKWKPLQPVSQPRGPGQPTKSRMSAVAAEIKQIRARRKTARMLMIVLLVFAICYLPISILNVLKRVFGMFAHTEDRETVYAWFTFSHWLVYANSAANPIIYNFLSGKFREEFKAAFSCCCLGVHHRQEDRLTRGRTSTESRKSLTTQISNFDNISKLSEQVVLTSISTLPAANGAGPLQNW

| Compound | Ki [1] [nM] | Ki [2] [nM] | OX2 pKi (SPA binding) ([3]; Table 2, [3H]EMPA 2 nM) | OX1 pKi (SPA binding) ([4]; Table 2, [3H]SB-674042 2 nM) | other results |
| --- | --- | --- | --- | --- | --- |
| Cc1ccc(-n2nccn2)c(C(=O)N2C(COc3ccc(F)cc3)CC3CC2C3)c1 (single isomer, unassigned) [Example 12, (3S or 3R) 3-(4-fluorophenoxymethyl)-2-{[5-methyl-2-(2H-1,2,3-triazol-2-yl)phenyl]carbonyl}-2-azabicyclo[3.1.1]heptane] | 1050 | 27.5 | – | – | – |
| Cc1ccc(-c2ncccn2)c(C(=O)N2C3CC(C3)[C@@H](C)[C@H]2COc2ccc(F)cc2)c1 (single isomer, unassigned) [Example 71, (3S,4R or 3R,4S) 3-(4-fluorophenoxymethyl)-4-methyl-2-[5-methyl-2-(pyrimidin-2-yl)benzoyl]-2-azabicyclo[3.1.1]heptane] | 89.1 | 3.39 | – | – | – |
| Cc1ccc(-c2ncccn2)c(C(=O)N2C(COc3ccc(C(F)(F)F)cn3)CC3CC2C3)c1 (racemic) [Example 35] | 631 | 74.1 | – | – | – |
| Cc1ccc(-c2ncccn2)c(C(=O)N2C(COc3ccc(Cl)cn3)CC3CC2C3)c1 (single isomer, unassigned) [Example 33, (3S or 3R) 3-{[(5-chloropyridin-2-yl)oxy]methyl}-2-{[5-methyl-2-(pyrimidin-2-yl)phenyl]carbonyl}-2-azabicyclo[3.1.1]heptane] | 110 | 24 | – | – | – |
| Cc1nc(C(=O)N2C(COc3ccc(F)cn3)CC3CC2C3)c(-c2ccccc2)s1 (centres unmarked) [Example 24] | 759 | 46.8 | – | – | – |
| Cc1ccc(-c2nccs2)c(C(=O)N2C(COc3ccc(F)cc3)CC3CC2C3)n1 (racemic) [Example 4] | 162 | 5.75 | – | – | – |
| Cc1ccc(-c2ncccn2)c(C(=O)N2C(COc3ccc(F)cn3)CC3CC2C3)n1 (single isomer, unassigned) [Example 22, (3S or 3R) 3-{[(5-fluoropyridin-2-yl)oxy]methyl}-2-{[6-methyl-3-(pyrimidin-2-yl)pyridin-2-yl]carbonyl}-2-azabicyclo[3.1.1]heptane] | 174 | 34.7 | – | – | – |
| Cc1ccc(-c2ncccn2)c(C(=O)N2C3CC(C3)[C@@H](C)[C@@H]2COc2ccc(F)cn2)n1 (single isomer, unassigned) [Example 82, (3S,4S or 3R,4R) 3-{[(5-fluoropyridin-2-yl)oxy]methyl}-4-methyl-2-[6-methyl-3-(pyrimidin-2-yl)pyridin-2-carbonyl]-2-azabicyclo[3.1.1]heptane] | 2240 | 10 | – | – | – |
| Cc1nc(C(=O)N2C3CC(C3)C(C)C2COc2cc3ccccc3cn2)c(-c2ccccc2)s1 (mixture of isomers) [Example 85, CIS/TRANS 3-{[4-methyl-2-(2-methyl-5-phenyl-1,3-thiazole-4-carbonyl)-2-azabicyclo[3.1.1]heptan-3-yl]methoxy}isoquinoline] | 1050 | 6.31 | – | – | – |
| Cc1ccc(-c2nccs2)c(C(=O)N2C(COc3ccc(Cl)cc3)CC3CC2C3)c1 (centres unmarked) [Example 20] | – | 22.9 | – | – | – |
| Cc1ccc(-n2nccn2)c(C(=O)N2C3CC(C3)[C@@H](C)C2COc2ccc(F)cc2)n1 (stereo partly drawn) [Example 95, cis-3-[(4-fluorophenoxy)methyl]-4-methyl-2-[6-methyl-3-(2H-1,2,3-triazol-2-yl)pyridine-2-carbonyl]-2-azabicyclo[3.1.1]heptane] | – | – | – | – | OX2 pKi (SPA binding) ([3]; Table 1, [3H]EMPA 2 nM): 6.6; OX1 pKi (SPA binding) ([4]; Table 1, [3H]SB-674042 2 nM): 8.09 |
| Cc1ccc(-c2nccs2)c(C(=O)N2C3CC(C3)[C@@H](C)C2COc2ccc(F)cc2)c1 (mixture of isomers) [Example 98, cis-3-[(4-fluorophenoxy)methyl]-4-methyl-2-[5-methyl-2-(1,3-thiazol-2-yl)benzoyl]-2-azabicyclo[3.1.1]heptane] | – | – | – | – | OX2 pKi (SPA binding) ([3]; Table 1, [3H]EMPA 2 nM): 6.75; OX1 pKi (SPA binding) ([4]; Table 1, [3H]SB-674042 2 nM): 7.86 |
| C[C@@H]1C2CC(C2)N(C(=O)c2cc(F)ccc2-n2nccn2)C1CNc1ncc(C(F)(F)F)cn1 (some centres unmarked) [Example 251] | – | – | 4.69 | 7.65 | – |
| Cc1ccc(-n2nccn2)c(C(=O)N2C3CC(C3)[C@H](C)C2COc2ccc(Cl)cc2)n1 (single isomer, unassigned) [Example 120, (3R,4R) or (3S,4S)-3-[(4-chlorophenoxy)methyl]-4-methyl-2-[6-methyl-3-(2H-1,2,3-triazol-2-yl)pyridine-2-carbonyl]-2-azabicyclo[3.1.1]heptane] | – | – | 5.98 | 8 | – |
| Cc1ccc(-n2nccn2)c(C(=O)N2C3CC(C3)[C@@H](C)C2CNc2nc3ccccc3s2)n1 (single isomer, unassigned) [Example 180, N-{[(3R,4S) or (3S,4R)-4-methyl-2-[6-methyl-3-(2H-1,2,3-triazol-2-yl)pyridine-2-carbonyl]-2-azabicyclo[3.1.1]heptan-3-yl]methyl}-1,3-benzothiazol-2-amine] | – | – | 5.58 | 8.78 | – |
| C[C@@H]1C2CC(C2)N(C(=O)c2cc(Cl)ccc2-n2nccn2)C1CNc1ncc(C(F)(F)F)cn1 (single isomer, unassigned) [Example 241, N-{[(3R,4S) or (3S,4R)-2-[5-chloro-2-(2H-1,2,3-triazol-2-yl)benzoyl]-4-methyl-2-azabicyclo[3.1.1]heptan-3-yl]methyl}-5-(trifluoromethyl)pyrimidin-2-amine] | – | – | 5.59 | 8.27 | – |
| Cc1ccc(-c2nccs2)c(C(=O)N2C3CC(C3)[C@@H](C)C2COc2ccc(F)cc2)n1 (mixture of isomers) [Example 96, cis-3-[(4-fluorophenoxy)methyl]-4-methyl-2-[6-methyl-3-(1,3-thiazol-2-yl)pyridine-2-carbonyl]-2-azabicyclo[3.1.1]heptane] | – | – | – | – | OX2 pKi (SPA binding) ([3]; Table 1, [3H]EMPA 2 nM): 6.88; OX1 pKi (SPA binding) ([4]; Table 1, [3H]SB-674042 2 nM): 8.18 |
| Cc1nc(C(=O)N2C3CC(C3)[C@H](C)C2COc2ccc(F)cn2)c(-c2ncccn2)s1 (mixture of isomers) [Example 116, trans-3-{[(5-fluoropyridin-2-yl)oxy]methyl}-4-methyl-2-[2-methyl-5-(pyrimidin-2-yl)-1,3-thiazole-4-carbonyl]-2-azabicyclo[3.1.1]heptane] | – | – | 5.26 | 7.32 | – |
| Cc1ccc(-n2nccn2)c(C(=O)N2C3CC(C3)[C@H](C)C2COc2ccc(Cl)cn2)n1 (stereo partly drawn) [Example 102, trans-3-{[(5-chloropyridin-2-yl)oxy]methyl}-4-methyl-2-[6-methyl-3-(2H-1,2,3-triazol-2-yl)pryidine-2-carbonyl]-2-azabicyclo[3.1.1]heptane] | – | – | – | – | OX2 pKi (SPA binding) ([3]; Table 1, [3H]EMPA 2 nM): 5.71; OX1 pKi (SPA binding) ([4]; Table 1, [3H]SB-674042 2 nM): 7.23 |
| C[C@@H]1C2CC(C2)N(C(=O)c2cc(F)ccc2-n2nccn2)C1CNc1cnc(C(F)(F)F)cn1 (mixture of isomers) [Example 221, cis-N-({2-[5-fluoro-2-(2H-1,2,3-triazol-2-yl)benzoyl]-4-methyl-2-azabicyclo[3.1.1]heptan-3-yl}methyl)-5-(trifluoromethyl)pyrazin-2-amine] | – | – | 4.94 | 7.73 | – |
| Cc1nc(C(=O)N2C3CC(C3)[C@@H](C)C2CNc2nc3ccc(F)cc3s2)c(-c2ncccn2)s1 (single isomer, unassigned) [Example 164, 6-fluoro-N-({(3R,4S) or (3S,4R)4-methyl-2-[2-methyl-5-(pyrimidin-2-yl)-1,3-thiazole-4-carbonyl]-2-azabicyclo[3.1.1]heptan-3-yl}methyl)-1,3-benzothiazol-2-amine] | – | – | 5.68 | 8.93 | – |
